Values of other authors as cited in patent US8202545B2, “Nutraceutical for the prevention and treatment of cancers and diseases affecting the liver” (Canthao Corporation, priority 2003, dated 2012).

Key:
[1] = tested on: chronic hepatitis; settings: chronic hepatitis patients
[2] = tested on: recurrent and second primary hepatomas; settings: treated group vs placebo 49%, P=0.04
[3] = tested on: human hepatoma cell
[4] = tested on: liver cancer
[5] = latest phase III clinical trial

In the case of interferon, the “overall response rate (normalization of liver enzyme levels and reduction of viral load)” value [1] is listed as “roughly 50%”.

In the case of `CC(C)=CCC/C(C)=C/CC/C(C)=C/C=C/C(C)=C/C(=O)O` [acyclic retinoid, polyprenoic acid], the “incidence of recurrent or new hepatoma” value [2] is listed as 27%.

In the case of `O=C1O[C@H]([C@@H](O)CO)C(O)=C1O` [ascorbic acid], the “AFP level in cells” value ([3]; decreased from 302) is listed as 90 and the “cellular growth inhibition as compared to controls” value ([3]; human hepatoma cells) is listed as “approximately 60%”.

In the case of `COc1cccc2c1C(=O)c1c(O)c3c(c(O)c1C2=O)C[C@@](O)(C(=O)CO)C[C@@H]3O[C@H]1C[C@H](N)[C@H](O)[C@H](C)O1` [Doxorubicin], the “median survival of patients treated” value [4, 5] is given as 7 months, the response rate [4, 5] is given as 11% and the “patients in whom agent is effective” value ([4]; liver cancer patients) is given as “less than 20%”. For the same compound, the median survival ([4]; liver cancer patients (Leung and Johnson 2001)) was “less than 6 months”.
